Test results taken from patent US10918648B2, “Estrogen receptor modulator combinations” (The Regents of the University of California, priority 2016, dated 2021).
Where two headings read alike, the source gives them in different places.

What was measured:
A549 NSCLC cells = assay: NSCLC cell proliferation in vitro (MTS assay); type: cell-based, human; conditions: 72 hours; for IC50: MTS assay
[1] = test system: MCF-7 breast cancer cells; assay: MCF-7 breast cancer cell proliferation (BrdU ELISA) in presence of estradiol-17β; type: cell-based, human; conditions: for IC50: Homo sapiens, MCF7, 72 hrs in the presence of 1 nM estradiol-17β, BrdU ELISA, read-out: IC50 for inhibition of cell proliferation, MCF-7; for inhibition of MCF-7 cell proliferation/survival: 1 μM or 50 μM antiestrogen in the presence of 1 nM estradiol, 1% DCC-FBS, FIG. 2A
Protocol: In experiments to assess potential proliferative effects of novel estrogen receptor ligands, human breast cancer cells were grown in phenol red-free, estrogen-free media with 1% dextran-coated charcoal-treated (DCC)-fetal bovine serum (FBS) for 48 hrs (15,44), then treated with either 1 μM or 50 μM doses of estrogen receptor antagonists in the presence of 1 nM estradiol-17β. Cell counts and viability tests (Trypan blue) were done every 24 hr for 3 days. After 72 hr, proliferation was assessed using the BrdU Cell proliferation ELISA (Roche). Cell numbers were also assessed initially by cell counts to confirm ELISA data. Each antiestrogen was tested at least in three different experiments.
In order to assess the antitumor action of novel estrogen receptor antagonists, we cultured human MCF-7 breast cancer cells with known expression of ERα. Cells were grown in 1% DCC-FBS for 48 hr and then treated with vehicle control or either 1 μM or 50 μM concentrations of antiestrogens JD 101-160 or the pure antiestrogen fulvestrant (FAS), all in the presence of 1 nM estradiol-170. […] Shown in FIG. 2A are results from MCF-7 cells grown in 1% DCC-FBS for 48 hr and then treated with vehicle control, 1 nM estradiol-170 and either 1 μM or 50 μM concentrations of antiestrogens JD 101-160 or the known pure antiestrogen fulvestrant (FAS) in the presence of 1 nM estradiol-170. Cell proliferation is expressed as percentage of that determined in the 1 nM estradiol-170-treated control group.
Cell proliferation assays: breast and lung tumor cells (between […]) were plated in 96 well plates using their respective medium with 10% FBS. For experiments using estradiol-17β, cells were rinsed with PBS and incubated with phenol redfree medium with 1% DCC-FBS for 48 hours as described before (24,25). Cells were then treated with different concentrations of SERDs ranging between 0.0001-100 μM. […] Cell counts and viability tests (Trypan blue) were done every 24 hr for 3 days. After 72 hr, proliferation was assessed with the MTS Assay CELLTITER 96® Aqueous Cell Proliferation Assay (Promega) or the Cell Proliferation ELISA, BrdU colorimetric assay (Roche). For the MTS, the absorbance of the formazan product was measured at 490 nanometer using the iMARK microplate reader from BIORAD. The BrdU ELISA assay is based on detection of BrdU incorporated into the genomic DNA of proliferating cells and an anti-BrdU antibody, the reaction product was quantified by measuring the absorbance at 370 nanometers using iMARK microplate reader from BIORAD. Cell numbers were also assessed initially by cell counts to confirm MTS/BrdU data. Experiments were done at least three times to confirm data.

[2] = test system: MAPK: ERK-1 (p44) and ERK-2 (p42); assay: Estrogen-induced MAPK phosphorylation, Western blot in MCF-7 cells; type: cell-based, human; conditions: MCF-7 parent cells, 1 nM estradiol (E2); antagonists pre-incubated at 1000 nM; FIG. 7A
Protocol: ERD inhibition of phosphorylation of MAPK, at both extracellular signal-regulated kinases ERK-1 (p44) and ERK-2 (p42) and downstream effects. […] Thus, we measured estrogen-induced phosphorylation of MAPK by established methods (9,15,16). Briefly, MCF-7 parental cells were estrogen deprived for 48 hrs, then treated with 1 nM estradiol-1713 in the presence of new compounds (10 nM-10 μM) to be tested for antagonist activity. After treatments, cell lysates were separated by SDS-PAGE followed by Western blot using a polyclonal antibody directed to phospho-p44/p42 MAP kinase (Thr202/Tyr204) (Cell Signaling). Immunodetection with antibody against total p44/p42 (Cell Signaling) was done as a control for gel loading. […] ERD S15 was as effective as fulvestrant in inhibiting the rapid estrogen-induced MAPK phosphorylation in breast tumor cells in vitro. […] E2 but not vehicle (CN) induced rapid phosphorylation of ERK-1 (p44) and ERK-2 (p42). This activation was prevented when cells were pre-incubated with 1000 nM ICI 182,780 (ICI; Faslodex) or 1000 nM compound S15 in the presence of estradiol (E2).

cyclin D1 = assay: Cyclin D1 expression, Western immunoblot in MCF-7 cells; type: cell-based, human; conditions: 24 hrs, 10% FBS, 1 μM and 10 μM, FIG. 7B
Protocol: FIG. 7B. […] Western immunoblot of cyclin D1 after treating MCF-7 cells 24 hrs with 10% FBS and 1 μM and 10 μM doses of JD105, JD128 and JD140. Refer to FIG. S4 methods and previous reports (20).
Next, SERD compounds developed in our laboratory were tested for a capability to suppress the expression of cyclin D1 in ERα-positive human breast cancer cells MCF-7 which were used to validate the activity of other hormonal agents previously (see 20) (FIG. 7B).
Gel electrophoresis and immunoblotting: Breast and lung tumor cells were treated in phenol-red free RPMI1640/DMEM with 5% DCC-FBS (26). After selected treatments cells were homogenized in the presence of protease inhibitors using RIPA buffer (Thermo Scientific). All procedures were performed in ice, lysates were centrifuged and protein concentration quantified in the supernatants using a Thermo Scientific® BCA protein assay kit. Approximately 20-60 μg of total protein were heated in the presence of Laemmli sample buffer (Biorad) to 100° C. for 10 min and loaded it on a gradient TGX gel 4-15% (Biorad). Gels were transferred to PVDF membranes for immunoblotting. Membranes were blocked either with 5% milk in Tris Buffer Saline with 0.1% Tween 20 or protein-free blocking solution (Thermo Scientific). […]

[3] = test system: Tamoxifen-resistant human MCF-7 breast cancer cells; assay: Endocrine-resistant breast cancer cell proliferation in vitro; type: cell-based; conditions: 72 hrs; 50 nM Palbociclib, 10 nM S128, or both; P<0.001 vs control and 100 nM tamoxifen; FIG. 10
Protocol: Tamoxifen-resistant human MCF-7 breast cancer cells were treated in vitro with control vehicle (CON), 100 nM tamoxifen (TAM), 50 nM Palbociclib (Pb) or 10 nM S128 or with Palbociclib in combination with S128 (S128+Pb) over 72 hrs. […] (FIG. 10)

[4] = in the presence of 1 μM abemaciclib, 5% DCC-FBS, read-out: IC50 of SERD for inhibition of NSCLC cell proliferation, A549
[5] = in the presence of 1 μM palbociclib, 5% DCC-FBS, read-out: IC50 of SERD for inhibition of NSCLC cell proliferation, A549
[6] = Homo sapiens, A549, SERD alone, estrogen-depleted phenol red-free medium with 5% DCC-FBS, read-out: IC50 for inhibition of NSCLC cell proliferation, A549

Row | SMILES | IC50 (A549 NSCLC cells; [4]) [nM] | IC50 (A549 NSCLC cells; [5]) [nM] | IC50 [1] [nM] | phosphorylation of MAPK (ERK-1 p44 and ERK-2 p42) [2] | IC50 (A549 NSCLC cells; [6]) [nM] | inhibition of MCF-7 cell proliferation/survival [1] | cyclin D1 expression (cyclin D1) | endocrine-resistant breast cancer cell proliferation [3] | antiproliferative effects compared with fulvestrant (A549 NSCLC cells; A549, RPMI 1640 with 10% FBS, 1 μM or 10 μM, FIG. 8A)
1 | C[C@]12C[C@H](Oc3ccc(N)cc3)[C@@H]3c4ccc(O)cc4CC[C@H]3[C@@H]1CC[C@@H]2O [JD105, (8S,9S,11S,13S,14S,17S)-11-(4-aminophenoxy)-13-methyl-7,8,9,11,12,13,14,15,16,17-decahydro-6H-cyclopenta[a]phenanthrene-3,17-diol] | 410 | 2570 | 2140 | inhibits phosphorylation of MAPK |  |  |  |  | 
2 | C[C@]12C[C@H](Oc3ccc(N)c(C(F)(F)F)c3)[C@@H]3c4ccc(O)cc4CC[C@H]3[C@@H]1CC[C@@H]2O [JD128, (8S,9S,11S,13S,14S,17S)-11-(4-Amino-3-(trifluoromethyl)phenoxy)-13-methyl-7,8,9,11,12,13,14,15,16,17-decahydro-6H-cyclopenta[a]phenanthrene-3,17-diol] | 660 | 1340 | 110 |  | 1090 | significant inhibition | down-regulates cyclin D1 | significantly different from control | 
3 | C[C@]12C[C@H](Oc3ccc(NC(=O)CCCCN4CCCCC4)c(F)c3)[C@@H]3c4ccc(O)cc4CC[C@H]3[C@@H]1CC[C@@H]2O [JD140, N-(4-(((8S,9S,11S,13S,14S,17S)-3,17-Dihydroxy-13-methyl-7,8,9,11,12,13,14,15,16,17-deca-hydro-6H-cyclopenta[a]phenanthren-11-yl)oxy)-2-fluorophenyl)-5-(piperidin-1-yl)pentan-amide] | 640 | 1220 | 320 |  | 500 | significant inhibition |  |  | significant antiproliferative effects
